ChEMBL document CHEMBL5058641, “Data for DCP probe TP-050” (2022)

Columns and labels:
[1] = target: 3',5'-cyclic-AMP phosphodiesterase 4D (Homo sapiens, UniProt Q08499); assay: PDE4D2 Eurofins SafetyScreen (Other); parameters: species or system Inhibitor
[2] = target: Neuronal acetylcholine receptor; alpha4/beta2 (Homo sapiens, UniProt P17787+P43681); assay: nAChR(a4/b2) Eurofins SafetyScreen (Other); parameters: species or system Blocker
[3] = GPCRScan assay: inhibition of GABA/PBR; parameters: species or system Rattus norvegicus; radioligand conc. used [nm] 0.3 – 2.0, parental cells brain tissue
[4] = target: Sigma intracellular receptor 2 (Homo sapiens) (UniProt Q5BJF2); details: Compound concentration 10.0 uM
[5] = target: Alpha-2B adrenergic receptor (Homo sapiens) (UniProt P18089); details: Compound concentration 10.0 uM
[6] = target: T1, 5-hydroxytryptamine receptor 2B (Homo sapiens, UniProt P41595); assay: HTR2B Eurofins SafetyScan (Receptor)
T1 sequence (P41595 whole entry): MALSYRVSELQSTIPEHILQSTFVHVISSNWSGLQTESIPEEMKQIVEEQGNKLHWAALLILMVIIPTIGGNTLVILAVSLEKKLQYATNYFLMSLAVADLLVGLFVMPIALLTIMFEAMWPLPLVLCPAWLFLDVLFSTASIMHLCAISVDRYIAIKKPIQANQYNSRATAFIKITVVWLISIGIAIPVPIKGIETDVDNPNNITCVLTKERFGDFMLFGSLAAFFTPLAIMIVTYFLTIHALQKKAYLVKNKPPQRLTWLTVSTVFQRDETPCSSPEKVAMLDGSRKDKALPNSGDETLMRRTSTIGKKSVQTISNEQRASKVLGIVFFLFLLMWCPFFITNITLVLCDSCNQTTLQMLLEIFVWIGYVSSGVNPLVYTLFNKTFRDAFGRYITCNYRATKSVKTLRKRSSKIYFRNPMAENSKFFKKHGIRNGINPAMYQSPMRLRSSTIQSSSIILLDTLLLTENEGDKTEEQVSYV

[7] = target: Tyrosine-protein kinase Lck (Homo sapiens, UniProt P06239); assay: LCK Eurofins SafetyScreen (Other); parameters: species or system Inhibitor
D(1A) dopamine receptor = D(1A) dopamine receptor (Homo sapiens, UniProt P21728); assay: DRD1 Eurofins SafetyScan (Receptor)
D(1A) dopamine receptor, sequence (P21728 whole entry): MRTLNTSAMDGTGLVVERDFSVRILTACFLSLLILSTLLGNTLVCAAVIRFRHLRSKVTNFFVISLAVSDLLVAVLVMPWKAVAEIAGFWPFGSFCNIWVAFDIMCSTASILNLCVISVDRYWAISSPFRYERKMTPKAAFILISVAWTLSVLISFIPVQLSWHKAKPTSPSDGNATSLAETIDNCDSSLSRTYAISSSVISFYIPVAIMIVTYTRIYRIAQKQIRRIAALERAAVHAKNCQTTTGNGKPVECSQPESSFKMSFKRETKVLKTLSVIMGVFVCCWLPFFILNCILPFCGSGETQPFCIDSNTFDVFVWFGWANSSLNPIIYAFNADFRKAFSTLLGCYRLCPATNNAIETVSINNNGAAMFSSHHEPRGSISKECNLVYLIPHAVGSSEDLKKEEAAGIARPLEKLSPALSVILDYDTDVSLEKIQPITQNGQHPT

[8] = target: 5-hydroxytryptamine receptor 1D (Homo sapiens, UniProt P28221); assay: GPCRScan assay: inhibition of 5-HT1D; parameters: radioligand conc. used [nm] 1.0 – 2.0, parental cells HEKT
5-hydroxytryptamine receptor 1D, sequence (P28221 whole entry): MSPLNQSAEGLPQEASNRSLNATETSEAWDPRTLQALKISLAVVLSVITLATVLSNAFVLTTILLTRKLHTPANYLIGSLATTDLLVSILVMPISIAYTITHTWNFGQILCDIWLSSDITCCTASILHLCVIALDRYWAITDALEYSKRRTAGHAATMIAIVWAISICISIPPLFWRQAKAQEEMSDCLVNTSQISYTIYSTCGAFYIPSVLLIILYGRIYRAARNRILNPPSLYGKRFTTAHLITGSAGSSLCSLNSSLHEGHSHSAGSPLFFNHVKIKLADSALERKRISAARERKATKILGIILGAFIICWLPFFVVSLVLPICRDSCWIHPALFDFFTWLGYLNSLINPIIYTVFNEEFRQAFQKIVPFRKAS

[9] = target: Histamine H3 receptor (Homo sapiens) (UniProt Q9Y5N1); details: Compound concentration 10.0 uM
[10] = target: Muscarinic acetylcholine receptor M1 (Homo sapiens, UniProt P11229); assay: CHRM1 Eurofins SafetyScan (Receptor)
[11] = target: Muscarinic acetylcholine receptor M2 (Homo sapiens, UniProt P08172); assay: CHRM2 Eurofins SafetyScan (Receptor)
[12] = target: Muscarinic acetylcholine receptor M4 (Homo sapiens) (UniProt P08173); details: Compound concentration 10.0 uM
[13] = target: Voltage-dependent L-type calcium channel subunit alpha-1C (Homo sapiens, UniProt Q13936); assay: CAV1.2 Eurofins SafetyScreen (Other); parameters: species or system Blocker
[14] = target: Muscarinic acetylcholine receptor M3 (Homo sapiens, UniProt P20309); details: Compound concentration 10.0 uM
Insulin receptor = Insulin receptor (Homo sapiens, UniProt P06213); assay: INSR Eurofins SafetyScreen (Other); parameters: species or system Inhibitor
[15] = target: Muscarinic acetylcholine receptor M1 (Homo sapiens) (UniProt P11229); details: Compound concentration 10.0 uM
[16] = target: D(1B) dopamine receptor (Homo sapiens) (UniProt P21918); details: Compound concentration 10.0 uM
[17] = target: T2, Delta-type opioid receptor (Homo sapiens, UniProt P41143); details: Compound concentration 10.0 uM
T2 sequence (P41143 whole entry): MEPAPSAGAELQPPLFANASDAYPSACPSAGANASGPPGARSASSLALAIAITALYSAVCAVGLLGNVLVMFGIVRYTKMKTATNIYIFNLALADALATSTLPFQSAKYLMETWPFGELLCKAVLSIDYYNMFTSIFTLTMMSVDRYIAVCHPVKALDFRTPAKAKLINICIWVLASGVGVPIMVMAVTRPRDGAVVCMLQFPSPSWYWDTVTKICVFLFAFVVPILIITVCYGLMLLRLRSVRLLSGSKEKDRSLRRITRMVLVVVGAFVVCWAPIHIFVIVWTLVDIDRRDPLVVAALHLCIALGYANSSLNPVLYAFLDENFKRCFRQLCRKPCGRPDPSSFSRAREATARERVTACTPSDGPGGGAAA

[18] = target: Vascular endothelial growth factor receptor 2 (Homo sapiens, UniProt P35968); assay: VEGFR2 Eurofins SafetyScreen (Other); parameters: species or system Inhibitor
[19] = target: Sodium-dependent dopamine transporter (Homo sapiens, UniProt Q01959); details: Compound concentration 10.0 uM
[20] = target: Alpha-2C adrenergic receptor (Homo sapiens) (UniProt P18825); details: Compound concentration 10.0 uM
[21] = target: Alpha-2A adrenergic receptor (Homo sapiens, UniProt P08913); assay: ADRA2A Eurofins SafetyScan (Receptor)
Histamine H1 receptor = Histamine H1 receptor (Homo sapiens, UniProt P35367); assay: HRH1 Eurofins SafetyScan (Receptor)
Histamine H1 receptor, sequence (P35367 whole entry): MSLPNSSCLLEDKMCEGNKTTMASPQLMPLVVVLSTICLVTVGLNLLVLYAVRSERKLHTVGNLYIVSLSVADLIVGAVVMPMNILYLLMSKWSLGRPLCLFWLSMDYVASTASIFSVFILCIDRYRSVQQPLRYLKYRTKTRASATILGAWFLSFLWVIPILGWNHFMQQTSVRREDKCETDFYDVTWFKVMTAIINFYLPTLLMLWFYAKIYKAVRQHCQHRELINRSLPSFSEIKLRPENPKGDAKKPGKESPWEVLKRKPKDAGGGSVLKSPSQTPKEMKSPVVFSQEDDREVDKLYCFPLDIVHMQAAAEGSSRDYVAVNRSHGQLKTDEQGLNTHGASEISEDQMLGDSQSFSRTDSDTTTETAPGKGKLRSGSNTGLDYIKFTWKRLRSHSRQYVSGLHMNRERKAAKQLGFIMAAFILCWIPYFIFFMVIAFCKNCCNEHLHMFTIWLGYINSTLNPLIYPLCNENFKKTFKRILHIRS

[22] = target: 5-hydroxytryptamine receptor 6 (Homo sapiens) (UniProt P50406); details: Compound concentration 10.0 uM
[23] = target: Cholecystokinin receptor type A (Homo sapiens, UniProt P32238); assay: CCKAR Eurofins SafetyScan (Receptor)
Cholecystokinin receptor type A, sequence (P32238 whole entry): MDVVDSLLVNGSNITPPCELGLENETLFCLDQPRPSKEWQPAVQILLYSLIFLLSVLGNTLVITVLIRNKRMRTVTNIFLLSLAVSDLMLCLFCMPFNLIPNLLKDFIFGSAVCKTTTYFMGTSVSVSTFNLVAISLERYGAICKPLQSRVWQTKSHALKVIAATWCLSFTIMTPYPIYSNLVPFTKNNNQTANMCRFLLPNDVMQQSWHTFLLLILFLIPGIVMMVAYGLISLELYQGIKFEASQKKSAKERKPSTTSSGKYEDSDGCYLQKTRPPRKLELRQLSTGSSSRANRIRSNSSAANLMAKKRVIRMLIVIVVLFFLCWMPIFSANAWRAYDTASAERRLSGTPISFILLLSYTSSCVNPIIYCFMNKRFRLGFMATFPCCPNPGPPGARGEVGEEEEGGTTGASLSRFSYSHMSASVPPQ

[24] = target: Histamine H4 receptor (Homo sapiens) (UniProt Q9H3N8); details: Compound concentration 10.0 uM
Histamine H4 receptor (Homo sapiens), sequence (Q9H3N8 whole entry): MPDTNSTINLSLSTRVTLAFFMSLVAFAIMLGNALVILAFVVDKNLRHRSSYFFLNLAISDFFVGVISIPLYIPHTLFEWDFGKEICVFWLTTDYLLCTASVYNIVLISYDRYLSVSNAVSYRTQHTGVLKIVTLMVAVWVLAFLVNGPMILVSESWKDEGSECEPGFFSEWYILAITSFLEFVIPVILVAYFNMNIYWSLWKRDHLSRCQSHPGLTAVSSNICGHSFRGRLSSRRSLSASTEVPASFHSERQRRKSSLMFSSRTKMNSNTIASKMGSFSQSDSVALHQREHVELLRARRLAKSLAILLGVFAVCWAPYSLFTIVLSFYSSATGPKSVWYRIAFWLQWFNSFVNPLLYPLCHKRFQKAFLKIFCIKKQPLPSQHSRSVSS

[25] = target: Beta-1 adrenergic receptor (Homo sapiens, UniProt P08588); details: Compound concentration 10.0 uM
[26] = target: T2, Delta-type opioid receptor; assay: OPRD1 Eurofins SafetyScan (Receptor)
[27] = target: Beta-3 adrenergic receptor (Homo sapiens) (UniProt P13945); details: Compound concentration 10.0 uM
Glucocorticoid receptor = Glucocorticoid receptor (Homo sapiens, UniProt P04150); assay: GR Eurofins SafetyScan (Receptor)
Glucocorticoid receptor, sequence (P04150 whole entry): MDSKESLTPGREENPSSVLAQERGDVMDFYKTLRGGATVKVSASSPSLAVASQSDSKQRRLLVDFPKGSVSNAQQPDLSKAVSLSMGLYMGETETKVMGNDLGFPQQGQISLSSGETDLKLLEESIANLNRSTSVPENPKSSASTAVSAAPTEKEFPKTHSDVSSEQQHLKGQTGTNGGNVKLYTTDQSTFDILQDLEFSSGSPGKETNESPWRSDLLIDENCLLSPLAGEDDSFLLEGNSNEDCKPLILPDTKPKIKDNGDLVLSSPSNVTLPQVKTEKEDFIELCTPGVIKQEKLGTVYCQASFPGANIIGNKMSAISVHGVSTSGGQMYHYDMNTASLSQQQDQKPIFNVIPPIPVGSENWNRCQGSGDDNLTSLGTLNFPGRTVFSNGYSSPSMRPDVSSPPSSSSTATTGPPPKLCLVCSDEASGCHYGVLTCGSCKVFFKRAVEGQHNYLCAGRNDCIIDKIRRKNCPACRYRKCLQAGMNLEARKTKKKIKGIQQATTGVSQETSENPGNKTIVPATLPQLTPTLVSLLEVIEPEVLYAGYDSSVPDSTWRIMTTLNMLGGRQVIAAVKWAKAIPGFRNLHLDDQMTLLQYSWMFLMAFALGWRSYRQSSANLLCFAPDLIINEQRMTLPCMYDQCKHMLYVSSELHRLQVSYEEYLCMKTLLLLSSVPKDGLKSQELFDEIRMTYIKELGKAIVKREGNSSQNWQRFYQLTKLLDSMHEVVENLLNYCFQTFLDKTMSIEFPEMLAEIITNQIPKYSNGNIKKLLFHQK

[28] = target: Prostaglandin G/H synthase 1 (Homo sapiens, UniProt P23219); assay: COX1 Eurofins SafetyScreen (Other); parameters: species or system Inhibitor
[29] = target: Sodium-dependent serotonin transporter (Homo sapiens, UniProt P31645); assay: SERT Eurofins SafetyScreen (Other); parameters: species or system Blocker
[30] = target: Voltage-gated inwardly rectifying potassium channel KCNH2 (Homo sapiens, UniProt Q12809); assay: hERG Eurofins SafetyScreen (Other); parameters: species or system Blocker
[31] = target: 5-hydroxytryptamine receptor 1B (Homo sapiens, UniProt P28222); assay: HTR1B Eurofins SafetyScan (Receptor)
5-hydroxytryptamine receptor 1B, sequence (P28222 whole entry): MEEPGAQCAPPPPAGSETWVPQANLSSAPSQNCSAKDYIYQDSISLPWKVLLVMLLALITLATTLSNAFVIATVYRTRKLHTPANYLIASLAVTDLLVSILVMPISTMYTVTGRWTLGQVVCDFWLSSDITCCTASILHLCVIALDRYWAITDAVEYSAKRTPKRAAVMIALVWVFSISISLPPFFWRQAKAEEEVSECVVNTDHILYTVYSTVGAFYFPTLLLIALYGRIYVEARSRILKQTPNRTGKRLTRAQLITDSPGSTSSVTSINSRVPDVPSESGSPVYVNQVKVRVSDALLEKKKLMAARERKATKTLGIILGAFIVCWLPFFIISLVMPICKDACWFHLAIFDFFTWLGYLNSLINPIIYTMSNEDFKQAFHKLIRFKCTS

[32] = target: Gamma-aminobutyric acid receptor subunit alpha-1 (Homo sapiens, UniProt P14867); assay: GABAA Eurofins SafetyScreen (Other); parameters: species or system Blocker
[33] = target: Glutamate receptor ionotropic, NMDA 2C (Homo sapiens, UniProt Q05586+Q14957); assay: GluN2C-containing NMDA receptor (Ca2+ influx) assay (EC50)
[34] = target: Sodium-dependent noradrenaline transporter (Homo sapiens, UniProt P23975); assay: NET Eurofins SafetyScreen (Other); parameters: species or system Blocker
Histamine H2 receptor [35] = target: T3, Histamine H2 receptor (Homo sapiens, UniProt P25021); assay: HRH2 Eurofins SafetyScan (Receptor)
T3 sequence (P25021 whole entry): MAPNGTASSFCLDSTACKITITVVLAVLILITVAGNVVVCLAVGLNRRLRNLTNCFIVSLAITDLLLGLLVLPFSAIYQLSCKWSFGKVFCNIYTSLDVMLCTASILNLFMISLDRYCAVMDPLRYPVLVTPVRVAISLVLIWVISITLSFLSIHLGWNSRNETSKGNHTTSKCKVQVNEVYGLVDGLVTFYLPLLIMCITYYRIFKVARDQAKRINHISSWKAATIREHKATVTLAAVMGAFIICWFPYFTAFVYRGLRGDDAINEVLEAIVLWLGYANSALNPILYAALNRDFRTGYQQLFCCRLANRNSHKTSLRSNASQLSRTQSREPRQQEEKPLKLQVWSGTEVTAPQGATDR

Histamine H2 receptor [36] = target: T3, Histamine H2 receptor; details: Compound concentration 10.0 uM
[37] = target: 5-hydroxytryptamine receptor 3A (Homo sapiens) (UniProt P46098); details: Compound concentration 10.0 uM
[38] = target: Muscarinic acetylcholine receptor M5 (Homo sapiens) (UniProt P08912); details: Compound concentration 10.0 uM
[39] = target: Alpha-2A adrenergic receptor (Homo sapiens) (UniProt P08913); details: Compound concentration 10.0 uM
[40] = target: T1, 5-hydroxytryptamine receptor 2B; details: Compound concentration 10.0 uM
[41] = target: Beta-2 adrenergic receptor (Homo sapiens, UniProt P07550); details: Compound concentration 10.0 uM
Mu-type opioid receptor = Mu-type opioid receptor (Homo sapiens, UniProt P35372); assay: OPRM1 Eurofins SafetyScan (Receptor)
Mu-type opioid receptor, sequence (P35372 whole entry): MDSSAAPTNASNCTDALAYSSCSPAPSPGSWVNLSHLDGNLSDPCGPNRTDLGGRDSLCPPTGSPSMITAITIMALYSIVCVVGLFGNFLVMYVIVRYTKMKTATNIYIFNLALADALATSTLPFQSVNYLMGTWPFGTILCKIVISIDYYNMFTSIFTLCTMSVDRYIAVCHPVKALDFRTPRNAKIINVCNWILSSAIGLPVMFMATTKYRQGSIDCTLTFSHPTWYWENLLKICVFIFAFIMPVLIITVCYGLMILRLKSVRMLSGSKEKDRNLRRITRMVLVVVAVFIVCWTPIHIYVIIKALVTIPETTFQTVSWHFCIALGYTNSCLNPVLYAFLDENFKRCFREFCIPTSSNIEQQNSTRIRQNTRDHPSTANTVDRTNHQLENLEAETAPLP

SMILES: Cc1cn([C@H](C)CC#N)c(=O)c2cc(Cn3nc(C(F)F)cc3Cl)nn12
- IC50 [1]: > 10 µM
- IC50 [2]: > 10 µM
- Ki [3]: 0.336 µM
- pKi [3]: 6.47
- inhibition [4]: 10.9%
- inhibition [5]: 6.16%
- EC50 [6]: > 10 µM
- IC50 [6]: > 10 µM
- IC50 [7]: > 10 µM
- EC50 (D(1A) dopamine receptor): > 10 µM
- IC50 (D(1A) dopamine receptor): > 10 µM
- Ki [8]: > 10 µM
- pKi [8]: < 5
- inhibition [9]: 34.8%
- EC50 [10]: > 10 µM
- IC50 [10]: > 10 µM
- EC50 [11]: > 10 µM
- IC50 [11]: > 10 µM
- inhibition [12]: 4.14%
- IC50 [13]: > 10 µM
- inhibition [14]: 11.9%
- IC50 (Insulin receptor): > 10 µM
- inhibition [15]: 12.5%
- inhibition [16]: 19.3%
- inhibition [17]: -4.95%
- IC50 [18]: > 10 µM
- inhibition [19]: 54.8%
- inhibition [20]: -1.11%
- EC50 [21]: > 10 µM
- IC50 [21]: > 10 µM
- EC50 (Histamine H1 receptor): > 10 µM
- IC50 (Histamine H1 receptor): > 10 µM
- inhibition [22]: 8.34%
- EC50 [23]: > 10 µM
- IC50 [23]: > 10 µM
- inhibition [24]: 25.2%
- inhibition [25]: 4.09%
- EC50 [26]: > 10 µM
- IC50 [26]: > 10 µM
- inhibition [27]: -3.8%
- EC50 (Glucocorticoid receptor): > 10 µM
- IC50 (Glucocorticoid receptor): > 10 µM
- IC50 [28]: > 10 µM
- IC50 [29]: > 10 µM
- IC50 [30]: > 10 µM
- EC50 [31]: > 10 µM
- IC50 [31]: > 10 µM
- IC50 [32]: > 10 µM
- EC50 [33]: > 30 µM (not active)
- IC50 [34]: > 10 µM
- EC50 (Histamine H2 receptor [35]): > 10 µM
- IC50 (Histamine H2 receptor [35]): > 10 µM
- inhibition (Histamine H2 receptor [36]): 3.64%
- inhibition [37]: 0.11%
- inhibition [38]: 17.9%
- inhibition [39]: 15.9%
- inhibition [40]: 42.7%
- inhibition [41]: -1.62%
- EC50 (Mu-type opioid receptor): > 10 µM
- IC50 (Mu-type opioid receptor): > 10 µM
